The values below are quoted from earlier work in paper PMC6376154 (International Journal for Parasitology: Drugs and Drug …, 2019).

SMILES strings stand for the structures. Where two headings read alike, the source gives them in different places.

This data set has as its system P. falciparum 3D7 asexual blood stage. Particulars: cited from earlier work.
The mark [1] stands for this setting: MMV Malaria Box sheet, ref MMV data sheets.
Setting [2] is: source GNF, ref ChEMBL_NTD, read-out: CHEMBL EC50.
Setting [3] is: MMV Malaria Box data sheet (supplement mmc2.xls), ref MMV data sheet.
Setting [4] is: MMV Malaria Box data sheet (supplement mmc2.xls), ref MMV data sheet, read-out: EC50_nM.
[5] abbreviates: value(s) per source (GSK, GNF, StJude), separated by semicolon, ref ChEMBL-NTD, read-out: CHEMBL EC50.
Setting [6] is: MMV Malaria Box data sheet, ref MMV data sheets, read-out: EC50_nM.
Setting [7] is: source GSK, ref ChEMBL_NTD, read-out: CHEMBL EC50.
[8] abbreviates: ChEMBL-NTD value per source (GNF, GSK, StJude), several values in a cell follow the order of the sources, read-out: CHEMBL EC50.
Setting [9] is: MMV Malaria Box sheet, ref MMV data sheets, read-out: EC50_nM.
Setting [10] is: MMV Malaria Box data sheet, ref MMV data sheets.

Take `CCOc1ccc(CCNC(=O)c2cccs2)cc1OCC` [MMV007978]: the “percent_inh @ 5 uM” value under setting [1] was 95%. The EC50 under setting [2] is 0.89 µM.
For `CN1CCN(c2c3c(c(C#N)c4nc5ccccc5n24)CCC3)CC1` [MMV008127], the “percent_inh @ 2 uM” value under setting [3] is recorded as 42%. Further, the EC50 reads like this: under setting [4], 4 µM; under setting [5], 1.18 µM.
For `O=C(O)C1Cc2c([nH]c3ccccc23)C(c2ccc(Cl)cc2Cl)N1` (stereo not shown) [MMV008138], the EC50 under setting [6] was 0.35 µM, the EC50 under setting [2] is 1.02 µM and the EC50 under setting [7] was 0.954 µM.
As to `Cc1c(C)n(Cc2ccc(F)cc2)c2ccc(C(=O)NCc3ccco3)cc12` [MMV008149], the “percent_inh @ 5 uM” value under setting [3] was 52%. The EC50 under setting [5] was 0.0782 µM.
Take `CN1C=C(c2ccc3ccccc3n2)C(c2c[nH]c3ccccc23)c2ccccc21` (stereo not shown) [MMV008160]: the EC50 under setting [8] was 1.14 µM.
For `COc1cc(OC)cc(N2C(=O)N(Cc3ccc(C(C)(C)C)cc3)c3ccccc3S2(=O)=O)c1` [MMV008173], under setting [1], the “percent_inh @ 5 uM” value is 97%. The EC50 reads like this: under setting [9], 1.43 µM; under setting [2], 3.75 µM.
As for `Oc1c2c(nc3cc(-c4ccccc4)nn13)CCCC2` [MMV008270], the “percent_inh @ 5 uM” value under setting [3] was 77%. Under setting [5], the EC50 was 1.93 µM.
For `CCOC(=O)c1cnc2c(C)cc(C)cc2c1Nc1ccc(OC)c(OC)c1` [MMV008294], the “percent_inh @ 5 uM” value under setting [10] is 96%. Moreover, the EC50 was 0.232 µM under setting [6] and 1.78 µM under setting [2].
In the case of `CCCc1c(CC)c(=N)c2ccccc2n1C` [MMV008416], the “percent_inh @ 5 uM” value under setting [10] is 69%. The EC50 runs as follows: under setting [6], 0.242 µM; under setting [2], 0.762 µM.
Turning to `COc1ccc(C2C(C(=O)Nc3cccc(OC)c3)c3ccccc3C(=O)N2C2CCCCC2)cc1` (stereo not shown) [MMV008455], the “percent_inh @ 5 uM” value under setting [1] was 97%. Further, the EC50 reads like this: under setting [9], 1.18 µM; under setting [2], 1.11 µM.
Consider `CCN1CCN(c2c(C(=O)c3ccccc3)cnc3cc(OC)c(OC)cc23)CC1` [MMV008474], for which the “percent_inh @ 5 uM” value under setting [1] is reported as 59%. Also, under setting [2], the EC50 was 3.02 µM.
In the case of `CCCn1c(=N)c(C(=O)NC2CCCCC2)cc2c(=O)n3cccc(C)c3nc21` [MMV008829], under setting [8], the EC50 was 0.46 µM.
On to `CCOc1cc2c(cc1OCC)C(c1cc(OC)c(O)cc1Cl)NCC2` (stereo not shown) [MMV008956], for which the “percent_inh @ 5 uM” value under setting [10] was 98%. Moreover, the EC50 was 0.37 µM under setting [6], 0.362 µM under setting [2] and 0.748 µM under setting [7].
With `O=C(CCc1ccccc1)c1ccccc1OCC(O)CN1CCCCC1` (stereo not shown) [MMV009015], under setting [8], the EC50 is 0.881 µM.
On to `CCN(CC)c1ccc(NC(=O)c2cccs2)cc1` [MMV009060], for which, under setting [3], the “percent_inh @ 5 uM” value is given as 88%. Further, under setting [5], the EC50 is 0.414 µM.
On to `OC(CNC1CCCCC1)Cn1c2ccccc2c2ccccc21` (stereo not shown) [MMV009063], for which the “percent_inh @ 5 uM” value under setting [10] is 93%. For the same compound, the EC50 reads like this: under setting [6], 0.293 µM; under setting [2], 0.483 µM; under setting [7], 0.991 µM.
For `O=C1c2ccc3c4c(ccc(c24)C(=O)N1CCCCO)C(=O)N(CCCCO)C3=O` [MMV009085], the EC50 under setting [8] was 0.354 µM.
As for `CCN(CC)S(=O)(=O)c1ccc(-c2csc(Nc3ccc(C)c(C)c3)n2)cc1` [MMV009108], under setting [3], the “percent_inh @ 5 uM” value was 97%. Also, the EC50 reads like this: under setting [4], 0.641 µM; under setting [5], 2.1 µM.
In the case of `CC1CCN(Cc2c(O)ccc3cc(-c4nc5ccccc5s4)c(=O)oc23)CC1` [MMV009127], the “percent_inh @ 5 uM” value under setting [1] was 91%. For the same compound, the EC50 reads like this: under setting [9], 1.13 µM; under setting [2], 12.5 µM.
Regarding `Cc1cc(Nc2ccc3ccccc3c2)n2ncnc2n1` [MMV011099], the EC50 reads like this: under setting [6], 0.242 µM; under setting [7], 0.173 µM.
In the case of `Cc1cc(Nc2ccc(Cl)cc2)n2nc(C(F)(F)F)nc2n1` [MMV011256], the EC50 by setting is: under setting [6], 0.212 µM; under setting [7], 0.117 µM.
For the compound `Cc1cc(C)cc(Nc2cc(C)nc3nc(C(F)(F)F)nn23)c1` [MMV011259], under setting [6], the EC50 is 0.0857 µM.
For `CC(C)(C)c1ccc(C2CC3=Nc4ccccc4N(C(=O)c4ccccc4Cl)C(c4ccc(F)cc4)C3=C(O)C2)cc1` (stereo not shown) [MMV011436], the EC50 under setting [8] is 2.63 µM.
Take `COC(=O)c1ccc(C2C3=C(O)CC(c4ccc(F)cc4)CC3=Nc3ccccc3N2C(=O)c2ccccc2)cc1` (stereo not shown) [MMV011438]: the EC50 under setting [8] was 0.332 µM.
As for `COc1ccc(C(=O)Nc2nonc2-c2ccc(OC)c(OC)c2)cc1Cl` [MMV011567], the “percent_inh @ 5 uM” value under setting [10] was 92%. The EC50 is 0.516 µM under setting [6], 1.79 µM under setting [2] and 0.675 µM under setting [7].
For the compound `CCOC(=O)C1CCN(C(=O)CN2C(=O)c3ccccc3C2c2c[nH]c3ccccc23)CC1` (stereo not shown) [MMV011576], the “percent_inh @ 5 uM” value under setting [1] is recorded as 98%. In addition, the EC50 under setting [9] was 1.18 µM and the EC50 under setting [2] is 0.519 µM.
`Oc1ccccc1CN1CCN(C(c2ccccc2)c2ccccc2)CC1` [MMV011795]: under setting [3], the “percent_inh @ 5 uM” value was 97%. Moreover, under setting [4], the EC50 is 0.611 µM.
Turning to `Oc1ccc2ccccc2c1CNc1nc2ccccc2[nH]1` [MMV011832], under setting [8], the EC50 was 0.652 µM.
For `Nc1ccc(-c2nc3cc(Oc4ccc(Oc5ccc6[nH]c(-c7ccc(N)cc7)nc6c5)cc4)ccc3[nH]2)cc1` [MMV011895], under setting [8], the EC50 is 0.288 µM.
Consider `COc1cccc(Nc2nc(NCCO)c3ccccc3n2)c1` [MMV011944], for which the EC50 under setting [4] was 0.854 µM.
Take `Cc1cc(NC(=O)c2ccc(-c3ccccc3)cc2)no1` [MMV018984]: the “percent_inh @ 5 uM” value under setting [3] is given as 95%. The EC50 by setting is: under setting [4], 0.693 µM; under setting [5], 1.02 µM.
For the compound `COCCNCC(O)Cn1c2ccc(Cl)cc2c2cc(Cl)ccc21` (stereo not shown) [MMV019017], the EC50 is 1.01 µM under setting [4] and 0.052 µM under setting [5].
`COc1cccc(-c2nn(C)c3sc(C(=O)NCCN4CCN(c5ccccc5F)CC4)cc23)c1` [MMV019064]: the “percent_inh @ 5 uM” value under setting [3] was 91%. Besides, the EC50 by setting is: under setting [4], 1.3 µM; under setting [5], 0.955 µM.
Consider `COc1ccccc1CNC(=O)CCn1c(=O)[nH]c2ccsc2c1=O` [MMV019066], for which the “percent_inh @ 5 uM” value under setting [10] is 67%. Also, the EC50 is 0.14 µM under setting [6] and 1.04 µM under setting [7].
Take `CCN1CCN(c2cc(C)c3cc(NC(=O)c4ccc(OC)c(OC)c4)ccc3n2)CC1` [MMV019074]: the “percent_inh @ 5 uM” value under setting [3] was 99%. Also, under setting [5], the EC50 is 1.03 µM.
As to `Cc1cccc(Nc2nc(N)c3ccccc3n2)c1` [MMV019110], under setting [10], the “percent_inh @ 2 uM” value was 97%. For the same compound, the EC50 reads like this: under setting [6], 0.4 µM; under setting [7], 0.574 µM.
As for `CCN(Cc1ccccc1)C1CCN(Cc2cc(Br)ccc2O)CC1` [MMV019127], the “percent_inh @ 5 uM” value under setting [3] is reported as 97%. The EC50 is, setting by setting: under setting [4], 0.625 µM; under setting [5], 0.823 µM.
As for `COc1cccc(Nc2nc(N)c3ccccc3n2)c1` [MMV019199], the EC50 under setting [8] is 0.934 µM.
On to `O=C(Nc1ccc(-c2nc3cc4ccccc4cc3[nH]2)cc1)c1cccc(Br)c1` [MMV019241], for which, under setting [1], the “percent_inh @ 5 uM” value is listed as 93%. Besides, the EC50 under setting [9] is 0.45 µM and the EC50 under setting [7] is 0.363 µM.
For `COc1ccc(-n2ccnc2SCC(=O)Nc2cc(C)ccc2C)c(OC)c1` [MMV019258], the “percent_inh @ 5 uM” value under setting [10] is given as 95%. For the same compound, the EC50 reads like this: under setting [6], 0.17 µM; under setting [7], 0.205 µM.
With `Cc1sc2ncnc(Sc3nc4ccccc4[nH]3)c2c1C` [MMV019266], the “percent_inh @ 5 uM” value under setting [1] is given as 100%. Besides, the EC50 reads like this: under setting [9], 0.615 µM; under setting [7], 0.255 µM.
